In assay [1] the target is acetylcholinesterase (AChE) (Electrophorus electricus, UniProt O42275). In words: In vitro acetylcholinesterase inhibitory assay (DTNB/acetylthiocholine iodide, absorbance at 412 nm). The assay is classed as biochemical. The conditions noted are these: IC50(BChE)/IC50(AChE). The procedure:
(§1) Acetylcholine is an important neurotransmitter involved in memory and cognition.[34] The enzymes AChE and BChE act on these neurotransmitters and degrade them to attenuate acetylcholine-mediated effects.[35] In neurodegenerative diseases, a reduced acetyl choline level is detrimental, leading to impaired memory and cognition.[36] […]
(§2) of test samples and 20 µL of 0.09 units/mL acetylcholinesterase enzyme. After 15 min. of incubation at 25 °C, 10 µL of 10 mM 5,50 -dithiobis-2-nitrobenzoic acid (DTNB) was added into each well followed by 10 µL of 14 mM acetylthiocholine iodide. Thirty minutes after the initiation of enzymatic reaction, absorbance of the colored end-product was measured using BioTek Power Wave X 340 Microplate Spectrophotometer at 412 nm. For butyrylcholinesterase (BuChE) inhibitory assay, the same procedure described above was followed, except for the use of enzyme and substrate, instead of which, butyrylcholine esterase from equine serum and S-butyrylthiocholine chloride were used. IC50 value was calculated by standard protocol Each test was conducted in triplicate. Absorbance of the test samples was corrected by subtracting the absorbance of their respective blank. Percentage inhibition was calculated using […]
(§3) Absorbance of control Absorbance of Sample
(§4) Percentage of inhibition = X 100
(§5) Selectivity for AChE defined as IC 50(BChE)/IC50(AChE).
(§6) Selectivity for BChE defined as IC 50(AChE)/IC50(BChE). […]

The target of assay [2] is T1, butyrylcholine esterase from equine serum (BChE) (Equus caballus, UniProt P81908).
T1 construct: esterase from equine serum; from tissue; host or cells: equine serum
In words: biochemical. The conditions noted are these: for BChE selectivity: IC50(AChE)/IC50(BChE); for IC50: in vitro, triplicate, read-out: BChE inhibition IC50 μM (±SD). The procedure: as §1, §2, §3, §4, §5, §6

acetylcholinesterase (AChE), sequence (O42275 24-633): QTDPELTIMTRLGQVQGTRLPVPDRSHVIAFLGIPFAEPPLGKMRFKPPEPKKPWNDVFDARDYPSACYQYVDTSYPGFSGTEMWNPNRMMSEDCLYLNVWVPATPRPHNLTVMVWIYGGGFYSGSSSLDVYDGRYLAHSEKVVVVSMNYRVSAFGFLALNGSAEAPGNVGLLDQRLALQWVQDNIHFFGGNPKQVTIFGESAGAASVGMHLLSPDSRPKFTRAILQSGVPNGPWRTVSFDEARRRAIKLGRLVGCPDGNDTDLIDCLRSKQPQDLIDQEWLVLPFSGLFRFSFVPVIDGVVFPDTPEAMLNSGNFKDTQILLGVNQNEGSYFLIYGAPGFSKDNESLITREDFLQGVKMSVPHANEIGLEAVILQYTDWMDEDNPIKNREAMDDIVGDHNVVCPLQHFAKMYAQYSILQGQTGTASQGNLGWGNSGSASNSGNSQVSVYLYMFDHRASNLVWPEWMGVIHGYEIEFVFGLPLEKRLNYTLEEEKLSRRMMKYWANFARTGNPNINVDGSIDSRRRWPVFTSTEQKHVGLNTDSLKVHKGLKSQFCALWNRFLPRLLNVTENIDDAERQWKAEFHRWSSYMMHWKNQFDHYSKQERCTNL
T1 sequence (P81908 whole entry): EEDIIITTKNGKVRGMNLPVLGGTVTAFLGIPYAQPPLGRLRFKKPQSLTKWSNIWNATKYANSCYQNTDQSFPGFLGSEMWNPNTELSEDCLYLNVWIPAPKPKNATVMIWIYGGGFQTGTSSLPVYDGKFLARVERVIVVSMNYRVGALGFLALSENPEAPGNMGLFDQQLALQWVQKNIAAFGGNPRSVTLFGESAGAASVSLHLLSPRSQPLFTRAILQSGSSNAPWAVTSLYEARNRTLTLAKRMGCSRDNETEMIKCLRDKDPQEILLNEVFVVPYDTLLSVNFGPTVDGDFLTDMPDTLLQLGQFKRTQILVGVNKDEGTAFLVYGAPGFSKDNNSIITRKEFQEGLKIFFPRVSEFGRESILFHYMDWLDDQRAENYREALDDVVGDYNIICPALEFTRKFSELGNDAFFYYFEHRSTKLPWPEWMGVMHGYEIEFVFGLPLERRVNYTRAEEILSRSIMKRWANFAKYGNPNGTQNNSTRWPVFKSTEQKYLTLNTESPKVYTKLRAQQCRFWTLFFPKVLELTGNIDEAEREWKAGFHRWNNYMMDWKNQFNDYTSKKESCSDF

Compound `O=C1c2ccccc2OC[C@@]12[C@H](c1ccccc1)[C@@H](Cc1ccccc1)NC21c2ccccc2-c2nc3ccccc3nc21` (stereo partly drawn) [Compound 5a] came in with an AChE selectivity in assay [1] of 1.27. For the same compound, in assay [2], the BChE selectivity worked out at 0.79 and the IC50 is 28.12 ± 0.25 µM.
In assay [1], `O=C1c2ccccc2OC[C@@]12[C@H](c1ccc(Br)cc1)[C@@H](Cc1ccccc1)NC21c2ccccc2-c2nc3ccccc3nc21` (stereo partly drawn) [Compound 5b] yielded an AChE selectivity of 1.32. Also, in assay [2], the BChE selectivity was 0.76 and the IC50 was found to be 24.12 ± 0.16 µM.
The matching figures for `O=C1c2ccccc2OCC12C(c1ccccc1Cl)C(Cc1ccccc1)NC21c2ccccc2-c2nc3ccccc3nc21` (stereo not drawn) [Compound 5c, 5-Benzyl-4-(2-chlorophenyl)-2-spiro[2,6′′]indenoquinoxalino-3-spiro[3,3′]-chromanonopyrrolidine]: 4.92, 0.20 and 22.16 ± 0.14 µM.
Compound `O=C1c2ccccc2OC[C@@]12[C@H](c1ccc(Cl)cc1)[C@@H](Cc1ccccc1)NC21c2ccccc2-c2nc3ccccc3nc21` (stereo partly drawn) [Compound 5d] came in with an AChE selectivity in assay [1] of 2.72. In addition, in assay [2], the BChE selectivity was found to be 0.37 and the IC50 was found to be 21.02 ± 0.18 µM.
In assay [1], `O=C1c2ccccc2OC[C@@]12[C@H](c1ccccc1F)[C@@H](Cc1ccccc1)NC21c2ccccc2-c2nc3ccccc3nc21` (stereo partly drawn) [Compound 5e] came in with an AChE selectivity of 3.83. In assay [2], the BChE selectivity is listed as 0.26 and the IC50 worked out at 20.2 ± 0.24 µM.
`O=C1c2ccccc2OC[C@@]12[C@H](c1ccc(F)cc1)[C@@H](Cc1ccccc1)NC21c2ccccc2-c2nc3ccccc3nc21` (stereo partly drawn) [Compound 5f] displayed an AChE selectivity in assay [1] of 5.67. Further, in assay [2], the BChE selectivity worked out at 0.18 and the IC50 was found to be 18.14 ± 0.06 µM.
`Cc1ccc([C@@H]2[C@@H](Cc3ccccc3)NC3(c4ccccc4-c4nc5ccccc5nc43)[C@]23COc2ccccc2C3=O)cc1` (stereo partly drawn) [Compound 5g] displayed an AChE selectivity in assay [1] of 1.38. Also, in assay [2], the BChE selectivity was determined as 0.72 and the IC50 came out at 29.8 ± 0.12 µM.
`COc1cccc([C@@H]2[C@@H](Cc3ccccc3)NC3(c4ccccc4-c4nc5ccccc5nc43)[C@]23COc2ccccc2C3=O)c1` (stereo partly drawn) [Compound 5h] had an AChE selectivity in assay [1] of 1.25. In assay [2], the BChE selectivity was 0.80 and the IC50 came out at 30.15 ± 0.1 µM.
In turn, `COc1ccc([C@@H]2[C@@H](Cc3ccccc3)NC3(c4ccccc4-c4nc5ccccc5nc43)[C@]23COc2ccccc2C3=O)cc1` (stereo partly drawn) [Compound 5i] showed an AChE selectivity in assay [1] of 1.29. Also, in assay [2], the BChE selectivity worked out at 0.77 and the IC50 was 29.18 ± 0.12 µM.
For the compound `O=C1c2ccccc2OC[C@@]12[C@H](c1cccc([N+](=O)[O-])c1)[C@@H](Cc1ccccc1)NC21c2ccccc2-c2nc3ccccc3nc21` (stereo partly drawn) [Compound 5j], the AChE selectivity in assay [1] is 1.93. For the same compound, in assay [2], the BChE selectivity was 0.52 and the concentration for half-maximal inhibition (IC50) was determined as 20.16 ± 0.2 µM.

For orientation: IC50 means the concentration needed to halve the response being measured.

Values taken from publication PMC11167517, “Synthesis, computational docking and molecular dynamics studies of a new class of spiroquinoxalinopyrrolidine embedded chromanone hybrids as potent anti-cholinesterase agents” (RSC Advances, 2024).
